Results reported in the NIST ThermoML archive (doi:10.1016/j.jct.2019.01.001).
± gives the expanded uncertainty stated by the source.

assay: not given; conditions: 293.15 K; 101.33 kPa; Liquid; Vibrating tube method

| SMILES | mass density [kg/m3] |
| --- | --- |
| CCn1cc[n+](C)c1.F[B-](F)(F)F [1-ethyl-3-methylimidazolium tetrafluoroborate] | 1283 ± 5.3 |
| CO [methanol] | 791.9 ± 0.4 |
| CCCC(C)O (stereo unspecified) [pentan-2-ol] | 810.1 ± 1.6 |
| CC(=O)CC(C)C [4-methylpentan-2-one] | 800.9 ± 1.6 |
| O [water] | 998.5 ± 0.4 |

assay: wn = mass fraction of the nth substance listed; conditions: 293.15 K; 100 kPa; Liquid; Vibrating tube method; w1 = 0.7

| SMILES | mass density [kg/m3] |
| --- | --- |
| O=[N+]([O-])O [nitric acid] + O | 1411.5 ± 2.9 |
